Measured values: patent US6914045B2, “Glycopeptide antibiotics” (Wyeth Holdings Corporation, priority 2001, dated 2005)
≈ marks a conversion by molar mass, not a printed value.

Legend:
[1] = system: Staphylococcus aureus-SMITH (GC 4543); assay: acute lethal infection in mice; type: in vivo; settings: acute lethal infection, female CD-1 mice, intraperitoneal challenge, intravenous 30 min. after infection, 7 day survival
Summary of the method: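 Mice (female CD-1, 20+/−2 gm) receive bacteria ip in broth or hog gastric mucin, then test agent iv after 30 min. Median effective dose is calculated from 7 day survival pooled across 3 tests.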

Escherichia coli = assay: in vitro antibacterial evaluation, MIC by broth dilution; type: cell-based; settings: 18 hours at 35° C.
[2] = anatomic pathology (histopathology of heart and kidney) in mice; type: in vivo; settings: CD-1 mice, 20 mg/kg intravenously daily for 9 days, necropsy day 10, microscopic histopathology
Experimental: Samples of tissues from necropsied mice were formalin-fixed, paraffin-embedded, sectioned, stained with hematoxylin and eosin, and examined microscopically. Histopathologic findings were recorded. These findings were subjectively graded on a scale corresponding to slight, mild, moderate, marked and severe as compared to untreated controls.

Enterococcus sp. = assay: in vitro antibacterial evaluation, MIC by broth dilution; type: cell-based; settings: broth dilution, 18 hours at 35° C.
Summary of the method: (§1)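 MIC = lowest antibiotic concentration preventing visible growth; inoculum 5×10^5 CFU/mL; drug range 64-0.06 μg/mL; Muller-Hinton II […]; NCCLS M7-A2 guidance.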

Staphylococcus sp. = assay: as above; type: cell-based; settings: broth dilution, 18 hours at 35° C.
Summary of the method: as §1

Streptococcus sp. = assay: as above; type: cell-based; settings: broth dilution, 18 hours at 35° C.
Summary of the method: as §1

Question: With COc1ccc2cc(COC3C(CO)OC(OC4C(CO)OC(Oc5ccc(CC6NC(=O)C(C(C)c7ccccc7)NC(=O)CNC(=O)C(CO)NC(=O)C(C(O)C7CNC(=N)N7C7OC(CO)C(O)C(O)C7O)NC(=O)C(C(O)C7CNC(=N)N7)NC6=O)cc5)C(O)C4O)C(O)C3O)ccc2c1 (stereo not drawn) [Example 230a, Cyclo[glycyl-β-methylphenylalanyl-O-[4-O-[4-O-[(6-methoxy-2-naphthyl)methyl]hexopyranosyl]hexopyranosyl]tyrosyl-3-(2-iminoimidazolidin-4-yl)seryl-3-(3-hexopyranosyl-2-iminoimidazolidin-4-yl)serylseryl]] as the compound, how does the median effective dose (ED50), Staphylococcus aureus-SMITH (GC 4543) [1] read?
Answer: 0.06 mg/kg

Question: And the “MIC Escherichia coli (ATCC 25922)” value (Escherichia coli)?
Answer: 32 µg/mL (≈ 21.8 µM)

Question: What about the “MIC Escherichia coli (GC 4559)” value (Escherichia coli) of the same compound?
Answer: 32 µg/mL (≈ 21.8 µM)

Question: And the “MIC Escherichia coli (GC 4560)” value (Escherichia coli)?
Answer: 0.25 to 1 µg/mL

Question: And the “Anatomical Pathology (Day 10), Heart” value [2]?
Answer: 0

Question: And the “Anatomical Pathology (Day 10), Kidney” value [2]?
Answer: +

Question: And the “MIC Enterococcus avium (GC 4558)” value (Enterococcus sp.)?
Answer: 2 to 4 µg/mL

Question: And the “MIC Enterococcus faecalis (ATCC 29212)” value (Enterococcus sp.)?
Answer: 2 to 4 µg/mL

Question: What about the “MIC Enterococcus faecalis (GC 2242)” value (Enterococcus sp.) of the same compound?
Answer: 2 to 4 µg/mL

Question: What about the “MIC Enterococcus faecalis (GC 2691)” value (Enterococcus sp.) of the same compound?
Answer: 2 to 4 µg/mL

Question: What about the “MIC Enterococcus faecalis (GC 3059)” value (Enterococcus sp.) of the same compound?
Answer: 2 to 4 µg/mL

Question: What about the “MIC Enterococcus faecalis (GC 4552)” value (Enterococcus sp.) of the same compound?
Answer: 2 to 4 µg/mL

Question: And the “MIC Enterococcus faecalis (GC 4553)” value (Enterococcus sp.)?
Answer: 2 to 4 µg/mL

Question: And the “MIC Enterococcus faecalis (GC 4554)” value (Enterococcus sp.)?
Answer: 2 to 4 µg/mL

Question: And the “MIC Enterococcus faecalis (GC 6189)” value (Enterococcus sp.)?
Answer: 1 to 4 µg/mL

Question: And the “MIC Enterococcus faecium (GC 2243)” value (Enterococcus sp.)?
Answer: 2 to 4 µg/mL

Question: What about the “MIC Enterococcus faecium (GC 4556)” value (Enterococcus sp.) of the same compound?
Answer: 2 to 4 µg/mL

Question: What about the “MIC Enterococcus faecium (GC 4557)” value (Enterococcus sp.) of the same compound?
Answer: 1 to 2 µg/mL

Question: And the “MIC Enterococcus faecalis (ATCC 29212)” value (Enterococcus sp.; inoculum 5×10^5 CFU/mL, strain ATCC 29212)?
Answer: 2 to 4 µg/mL

Question: And the “MIC Enterococcus faecalis (GC 2242)” value (Enterococcus sp.; inoculum 5×10^5 CFU/mL, strain GC 2242)?
Answer: 2 to 4 µg/mL

Question: And the “MIC Enterococcus faecium (GC 2243)” value (Enterococcus sp.; inoculum 5×10^5 CFU/mL, strain GC 2243)?
Answer: 2 to 4 µg/mL

Question: And the “MIC Enterococcus faecalis (GC 2691)” value (Enterococcus sp.; inoculum 5×10^5 CFU/mL, strain GC 2691)?
Answer: 2 to 4 µg/mL

Question: What about the “MIC Enterococcus faecalis (GC 3059)” value (Enterococcus sp.; inoculum 5×10^5 CFU/mL, strain GC 3059) of the same compound?
Answer: 2 to 4 µg/mL

Question: What about the “MIC Enterococcus faecalis (GC 4552)” value (Enterococcus sp.; inoculum 5×10^5 CFU/mL, strain GC 4552) of the same compound?
Answer: 2 to 4 µg/mL

Question: And the “MIC Enterococcus faecalis (GC 4553)” value (Enterococcus sp.; inoculum 5×10^5 CFU/mL, strain GC 4553)?
Answer: 2 to 4 µg/mL

Question: And the “MIC Enterococcus faecalis (GC 4554)” value (Enterococcus sp.; inoculum 5×10^5 CFU/mL, strain GC 4554)?
Answer: 2 to 4 µg/mL

Question: What about the “MIC Enterococcus faecium (GC 4556)” value (Enterococcus sp.; inoculum 5×10^5 CFU/mL, strain GC 4556) of the same compound?
Answer: 2 to 4 µg/mL

Question: What about the “MIC Enterococcus faecium (GC 4557)” value (Enterococcus sp.; inoculum 5×10^5 CFU/mL, strain GC 4557) of the same compound?
Answer: 1 to 2 µg/mL

Question: What about the “MIC Enterococcus avium (GC 4558)” value (Enterococcus sp.; inoculum 5×10^5 CFU/mL, strain GC 4558) of the same compound?
Answer: 2 to 4 µg/mL

Question: What about the “MIC Enterococcus faecalis (GC 6189)” value (Enterococcus sp.; inoculum 5×10^5 CFU/mL, strain GC 6189) of the same compound?
Answer: 1 to 4 µg/mL

Question: And the “MIC Coagulase Negative Staphylococcus (GC 4547)” value (Staphylococcus sp.)?
Answer: 0.5 to 2 µg/mL

Question: And the “MIC Coagulase Negative Staphylococcus (GC 4548)” value (Staphylococcus sp.)?
Answer: 0.12 to 0.5 µg/mL

Question: What about the “MIC Coagulase Negative Staphylococcus (GC 4549)” value (Staphylococcus sp.) of the same compound?
Answer: 0.12 to 0.5 µg/mL

Question: And the “MIC Coagulase Negative Staphylococcus (GC 4551)” value (Staphylococcus sp.)?
Answer: 0.25 to 1 µg/mL

Question: And the “MIC Coagulase Negative Staphylococcus (GC 6257)” value (Staphylococcus sp.)?
Answer: 0.25 to 0.5 µg/mL

Question: And the “MIC Staphylococcus aureus (ATCC 29213)” value (Staphylococcus sp.)?
Answer: 1 to 2 µg/mL

Question: And the “MIC Staphylococcus aureus (GC 1131)” value (Staphylococcus sp.)?
Answer: 0.5 to 2 µg/mL

Question: What about the “MIC Staphylococcus aureus (GC 3051)” value (Staphylococcus sp.) of the same compound?
Answer: 1 to 2 µg/mL

Question: What about the “MIC Staphylococcus aureus (GC 3053)” value (Staphylococcus sp.) of the same compound?
Answer: 1 to 2 µg/mL

Question: And the “MIC Staphylococcus aureus (GC 4541)” value (Staphylococcus sp.)?
Answer: 0.5 to 2 µg/mL

Question: What about the “MIC Staphylococcus aureus (GC 4542)” value (Staphylococcus sp.) of the same compound?
Answer: 0.25 to 2 µg/mL

Question: And the “MIC Staphylococcus aureus (GC 4544)” value (Staphylococcus sp.)?
Answer: 1 to 2 µg/mL

Question: What about the “MIC Staphylococcus aureus (GC 4545)” value (Staphylococcus sp.) of the same compound?
Answer: 0.5 to 1 µg/mL

Question: And the “MIC Staphylococcus aureus-SMITH (GC 4543)” value (Staphylococcus sp.)?
Answer: 0.5 to 2 µg/mL

Question: What about the “MIC Staphylococcus haemolyticus (GC 4546)” value (Staphylococcus sp.) of the same compound?
Answer: 0.25 to 1 µg/mL

Question: And the “MIC Staphylococcus aureus (ATCC 29213)” value (Staphylococcus sp.; strain ATCC 29213)?
Answer: 1 to 2 µg/mL

Question: And the “MIC Staphylococcus aureus (GC 1131)” value (Staphylococcus sp.; strain GC 1131)?
Answer: 0.5 to 2 µg/mL

Question: And the “MIC Staphylococcus aureus (GC 3051)” value (Staphylococcus sp.; strain GC 3051)?
Answer: 1 to 2 µg/mL

Question: What about the “MIC Staphylococcus aureus (GC 3053)” value (Staphylococcus sp.; strain GC 3053) of the same compound?
Answer: 1 to 2 µg/mL

Question: What about the “MIC Staphylococcus aureus (GC 4541)” value (Staphylococcus sp.; strain GC 4541) of the same compound?
Answer: 0.5 to 2 µg/mL

Question: And the “MIC Staphylococcus aureus (GC 4542)” value (Staphylococcus sp.; strain GC 4542)?
Answer: 0.25 to 2 µg/mL

Question: And the “MIC Staphylococcus aureus-SMITH (GC 4543)” value (Staphylococcus sp.; strain GC 4543)?
Answer: 0.5 to 2 µg/mL

Question: And the “MIC Staphylococcus aureus (GC 4544)” value (Staphylococcus sp.; strain GC 4544)?
Answer: 1 to 2 µg/mL

Question: What about the “MIC Staphylococcus aureus (GC 4545)” value (Staphylococcus sp.; strain GC 4545) of the same compound?
Answer: 0.5 to 1 µg/mL

Question: And the “MIC Staphylococcus haemolyticus (GC 4546)” value (Staphylococcus sp.; strain GC 4546)?
Answer: 0.25 to 1 µg/mL

Question: And the “MIC Coagulase Negative Staphylococcus (GC 4547)” value (Staphylococcus sp.; strain GC 4547)?
Answer: 0.5 to 2 µg/mL

Question: And the “MIC Coagulase Negative Staphylococcus (GC 4548)” value (Staphylococcus sp.; strain GC 4548)?
Answer: 0.12 to 0.5 µg/mL

Question: What about the “MIC Coagulase Negative Staphylococcus (GC 4549)” value (Staphylococcus sp.; strain GC 4549) of the same compound?
Answer: 0.12 to 0.5 µg/mL

Question: And the “MIC Coagulase Negative Staphylococcus (GC 4551)” value (Staphylococcus sp.; strain GC 4551)?
Answer: 0.25 to 1 µg/mL

Question: What about the “MIC Coagulase Negative Staphylococcus (GC 6257)” value (Staphylococcus sp.; strain GC 6257) of the same compound?
Answer: 0.25 to 0.5 µg/mL

Question: And the “MIC Streptococcus agalactiae (GC 4564)” value (Streptococcus sp.)?
Answer: <0.06 to 0.12 µg/mL

Question: What about the “MIC Streptococcus pneumoniae (ATCC 6301)” value (Streptococcus sp.) of the same compound?
Answer: <0.06 µg/mL

Question: What about the “MIC Streptococcus pneumoniae (GC 1894)” value (Streptococcus sp.) of the same compound?
Answer: <0.06 µg/mL

Question: What about the “MIC Streptococcus pneumoniae (GC 4565)” value (Streptococcus sp.) of the same compound?
Answer: <0.06 µg/mL

Question: And the “MIC Streptococcus pyogenes (GC 4563)” value (Streptococcus sp.)?
Answer: <0.06 to 0.25 µg/mL

Question: And the “MIC Streptococcus pneumoniae (ATCC 6301)” value (Streptococcus sp.; inoculum 5×10^5 CFU/mL, strain ATCC 6301)?
Answer: <0.06 µg/mL

Question: And the “MIC Streptococcus pneumoniae (GC 1894)” value (Streptococcus sp.; inoculum 5×10^5 CFU/mL, strain GC 1894)?
Answer: <0.06 µg/mL

Question: What about the “MIC Streptococcus pyogenes (GC 4563)” value (Streptococcus sp.; inoculum 5×10^5 CFU/mL, strain GC 4563) of the same compound?
Answer: <0.06 to 0.25 µg/mL

Question: And the “MIC Streptococcus agalactiae (GC 4564)” value (Streptococcus sp.; inoculum 5×10^5 CFU/mL, strain GC 4564)?
Answer: <0.06 to 0.12 µg/mL

Question: What about the “MIC Streptococcus pneumoniae (GC 4565)” value (Streptococcus sp.; inoculum 5×10^5 CFU/mL, strain GC 4565) of the same compound?
Answer: <0.06 µg/mL
